Assay results as given in paper PMC5218480 (PLoS ONE, 2017).

Test system: MV-4-11 cells
Assay: Gene expression microarray analysis (Affymetrix PrimeView) and GSEA
Format: cell-based, human
Set-up: RFU PODN (11730768_x_at) / Fold change /veh PODN (11730768_x_at) / RFU LINC00158 (11744669_a_at) / Fold change /veh LINC00158 (11744669_a_at) / RFU DUSP10 (11751237_a_at) / Fold change /veh DUSP10 (11751237_a_at) / RFU ID3 (11757404_x_at) / Fold change /veh ID3 (11757404_x_at) / RFU PLEKHG5 (11737974_s_at) / Fold change /veh PLEKHG5 (11737974_s_at) / RFU LRRC4B (11730491_at) / Fold change /veh LRRC4B (11730491_at) / RFU GIMAP4 (11747438_a_at) / Fold change /veh GIMAP4 (11747438_a_at) / RFU KRT8 (11758183_x_at) / Fold change /veh KRT8 (11758183_x_at) / RFU CNN1 (11734310_a_at) / Fold change /veh CNN1 (11734310_a_at) / RFU VPS37D (11726825_at) / Fold change /veh VPS37D (11726825_at) / RFU C10orf10 (11716522_x_at) / Fold change /veh C10orf10 (11716522_x_at) / RFU KIR2DL2 /// KIR2DL4 /// KIR2DL5A /// KIR2DL5B /// KIR2DS1 /// KIR2DS2 /// KIR2DS3 /// KIR2DS4 /// KIR3DL3 /// KIR3DL3 /// KIR3DS1 (11738374_at) / Fold change /veh KIR2DL2 /// KIR2DL4 /// KIR2DL5A /// KIR2DL5B /// KIR2DS1 /// KIR2DS2 /// KIR2DS3 /// KIR2DS4 /// KIR3DL3 /// KIR3DL3 /// KIR3DS1 (11738374_at) / RFU C1QL1 (11718748_at) / Fold change /veh C1QL1 (11718748_at) / RFU TMPRSS4 (11747572_a_at) / Fold change /veh TMPRSS4 (11747572_a_at) / RFU HAMP (11756126_x_at) / Fold change /veh HAMP (11756126_x_at) / RFU RNFT2 (11725882_a_at) / Fold change /veh RNFT2 (11725882_a_at) / RFU NR4A2 (11747474_a_at) / Fold change /veh NR4A2 (11747474_a_at) / RFU ABCC12 (11746883_a_at) / Fold change /veh ABCC12 (11746883_a_at) / RFU TMEM136 (11760407_x_at) / Fold change /veh TMEM136 (11760407_x_at) / RFU CLDN22 /// WWC2 (11732394_at) / Fold change /veh CLDN22 /// WWC2 (11732394_at) / RFU HLA-DPB1 (11760878_x_at) / Fold change /veh HLA-DPB1 (11760878_x_at) / RFU SPINT1 (11716480_a_at) / Fold change /veh SPINT1 (11716480_a_at) / RFU GAP43 (11754022_s_at) / Fold change /veh GAP43 (11754022_s_at) / RFU A4GNT (11735810_at) / Fold change /veh A4GNT (11735810_at) / RFU PRB3 (11715151_x_at) / Fold change /veh PRB3 (11715151_x_at) / RFU TUBB4B (11761932_at) / Fold change /veh TUBB4B (11761932_at) / RFU CAPN14 (11732068_a_at) / Fold change /veh CAPN14 (11732068_a_at) / RFU TMCC2 (11721928_a_at) / Fold change /veh TMCC2 (11721928_a_at) / RFU IRGQ (11745062_a_at) / Fold change /veh IRGQ (11745062_a_at) / RFU FAM174B (11720279_a_at) / Fold change /veh FAM174B (11720279_a_at) / RFU TMPRSS4 (11748680_a_at) / Fold change /veh TMPRSS4 (11748680_a_at) / RFU FAM212B (11763350_a_at) / Fold change /veh FAM212B (11763350_a_at) / RFU PLEKHG5 (11743358_a_at) / Fold change /veh PLEKHG5 (11743358_a_at) / RFU ZSCAN30 (11745921_a_at) / Fold change /veh ZSCAN30 (11745921_a_at) / RFU CMKLR1 (11741424_a_at) / Fold change /veh CMKLR1 (11741424_a_at) / RFU LOC101060620 /// MAPK8IP1 (11723275_at) / Fold change /veh LOC101060620 /// MAPK8IP1 (11723275_at) / RFU SPTSSB (11747773_x_at) / Fold change /veh SPTSSB (11747773_x_at) / RFU PRSS12 (11739890_at) / Fold change /veh PRSS12 (11739890_at) / RFU BIN1 (11741810_x_at) / Fold change /veh BIN1 (11741810_x_at) / RFU WNT11 (11732464_a_at) / Fold change /veh WNT11 (11732464_a_at) / RFU C10orf10 (11716521_a_at) / Fold change /veh C10orf10 (11716521_a_at) / RFU C5orf56 (11738089_at) / Fold change /veh C5orf56 (11738089_at) / RFU CYB561 (11721691_x_at) / Fold change /veh CYB561 (11721691_x_at) / RFU ANKRD19P (11752326_a_at) / Fold change /veh ANKRD19P (11752326_a_at) / RFU OR2T12 /// OR2T33 /// OR2T8 (11738714_s_at) / Fold change /veh OR2T12 /// OR2T33 /// OR2T8 (11738714_s_at) / RFU VCAN (11748164_a_at) / Fold change /veh VCAN (11748164_a_at) / RFU JSRP1 (11732532_at) / Fold change /veh JSRP1 (11732532_at) / RFU KRTAP10-11 (11738290_x_at) / Fold change /veh KRTAP10-11 (11738290_x_at) / RFU MYO3A (11730013_a_at) / Fold change /veh MYO3A (11730013_a_at) / RFU EBF3 (11725865_a_at) / Fold change /veh EBF3 (11725865_a_at) / RFU CAMK2N1 (11719241_x_at) / Fold change /veh CAMK2N1 (11719241_x_at) / RFU C5orf56 (11738088_a_at) / Fold change /veh C5orf56 (11738088_a_at) / RFU OLFML3 (11715873_a_at) / Fold change /veh OLFML3 (11715873_a_at) / RFU LOC100653217 /// NTM (11731650_a_at) / Fold change /veh LOC100653217 /// NTM (11731650_a_at) / RFU MAPK11 (11762145_a_at) / Fold change /veh MAPK11 (11762145_a_at) / RFU FIZ1 (11724087_x_at) / Fold change /veh FIZ1 (11724087_x_at) / RFU OASL (11726364_x_at) / Fold change /veh OASL (11726364_x_at) / RFU SOX15 (11748057_x_at) / Fold change /veh SOX15 (11748057_x_at) / RFU CD79A (11719716_a_at) / Fold change /veh CD79A (11719716_a_at) / RFU HIST1H1D (11736915_at) / Fold change /veh HIST1H1D (11736915_at) / RFU CASKIN2 (11723855_a_at) / Fold change /veh CASKIN2 (11723855_a_at) / RFU LOC730098 (11760151_x_at) / Fold change /veh LOC730098 (11760151_x_at) / RFU OR4N2 (11742367_at) / Fold change /veh OR4N2 (11742367_at) / RFU PRRT2 (11749266_a_at) / Fold change /veh PRRT2 (11749266_a_at) / RFU SNX32 (11753110_a_at) / Fold change /veh SNX32 (11753110_a_at) / RFU CDHR5 (11726645_a_at) / Fold change /veh CDHR5 (11726645_a_at) / RFU RCAN1 (11760418_a_at) / Fold change /veh RCAN1 (11760418_a_at) / RFU FAM167A (11723789_a_at) / Fold change /veh FAM167A (11723789_a_at) / RFU FAM26E (11764081_at) / Fold change /veh FAM26E (11764081_at) / RFU ISYNA1 (11749810_s_at) / Fold change /veh ISYNA1 (11749810_s_at) / RFU ACY1 (11761880_at) / Fold change /veh ACY1 (11761880_at) / RFU 11764098_at / Fold change /veh 11764098_at / RFU SAMD14 (11745864_x_at) / Fold change /veh SAMD14 (11745864_x_at) / RFU NPB (11741838_a_at) / Fold change /veh NPB (11741838_a_at) / RFU TMPRSS6 (11731388_a_at) / Fold change /veh TMPRSS6 (11731388_a_at) / RFU KRTAP10-2 (11738614_at) / Fold change /veh KRTAP10-2 (11738614_at) / RFU ARHGAP8 /// PRR5-ARHGAP8 (11727945_x_at) / Fold change /veh ARHGAP8 /// PRR5-ARHGAP8 (11727945_x_at) / RFU KRTAP5-7 /// NADSYN1 (11734609_at) / Fold change /veh KRTAP5-7 /// NADSYN1 (11734609_at) / RFU RASL12 (11751679_a_at) / Fold change /veh RASL12 (11751679_a_at) / RFU CDKN2B (11736163_a_at) / Fold change /veh CDKN2B (11736163_a_at) / RFU PRF1 (11729649_at) / Fold change /veh PRF1 (11729649_at) / RFU, ZNF638 /// ZNF638-IT1 / Fold change vs veh, ZNF638 /// ZNF638-IT1 / RFU, PANK3 / Fold change vs veh, PANK3 / RFU, SH3YL1 / Fold change vs veh, SH3YL1 / RFU, ZEB2 / Fold change vs veh, ZEB2 / RFU, NRIP1 / Fold change vs veh, NRIP1 / RFU, PTTG1IP / Fold change vs veh, PTTG1IP / RFU, CAPN2 / Fold change vs veh, CAPN2 / RFU, MED14 / Fold change vs veh, MED14 / RFU, SNORA58 / Fold change vs veh, SNORA58 / RFU, C1orf63 / Fold change vs veh, C1orf63 / RFU, LRRFIP1 / Fold change vs veh, LRRFIP1 / RFU, NDUFAF7 / Fold change vs veh, NDUFAF7 / RFU, SLC12A2 / Fold change vs veh, SLC12A2 / RFU, IBTK / Fold change vs veh, IBTK / RFU, ESF1 / Fold change vs veh, ESF1 / Fold change vs veh, TMEM50B / RFU, TAOK1 / Fold change vs veh, TAOK1 / RFU, ACBD3 / Fold change vs veh, ACBD3 / RFU, TMA16 / Fold change vs veh, TMA16 / RFU, RWDD3 / Fold change vs veh, RWDD3 / RFU, BCAT1 / Fold change vs veh, BCAT1 / RFU, EDEM3 / Fold change vs veh, EDEM3 / RFU, TMEM33 / Fold change vs veh, TMEM33 / RFU, WDR75 / Fold change vs veh, WDR75 / RFU, AHCTF1 / Fold change vs veh, AHCTF1 / RFU, TFRC / Fold change vs veh, TFRC / RFU, ZDHHC17 / Fold change vs veh, ZDHHC17 / RFU, NOM1 / Fold change vs veh, NOM1 / RFU, ARL8B / Fold change vs veh, ARL8B / RFU, ZBTB11 / Fold change vs veh, ZBTB11 / RFU, TAMM41 / Fold change vs veh, TAMM41 / RFU, KIAA1704 /// LOC100996395 / Fold change vs veh, KIAA1704 /// LOC100996395 / RFU, ING1 / Fold change vs veh, ING1 / RFU, TRMT61B / Fold change vs veh, TRMT61B / RFU, FUBP3 / Fold change vs veh, FUBP3 / RFU, TP53 / Fold change vs veh, TP53 / RFU, TNKS2 / Fold change vs veh, TNKS2 / RFU, ZFP14 / Fold change vs veh, ZFP14 / RFU, ACTR2 / Fold change vs veh, ACTR2 / RFU, PPP3R1 / Fold change vs veh, PPP3R1 / RFU, PIK3R1 / Fold change vs veh, PIK3R1 / RFU, HNRNPA1 / Fold change vs veh, HNRNPA1 / RFU, RNF170 / Fold change vs veh, RNF170 / RFU, ZNF28 / Fold change vs veh, ZNF28 / RFU, RNGTT / Fold change vs veh, RNGTT / RFU, OGT / Fold change vs veh, OGT / RFU, BRD1 / Fold change vs veh, BRD1 / RFU, MARS / Fold change vs veh, MARS / RFU, ZNF655 / Fold change vs veh, ZNF655 / RFU, FAHD1 / Fold change vs veh, FAHD1 / RFU, BDP1 / Fold change vs veh, BDP1 / RFU, LRRCC1 / Fold change vs veh, LRRCC1 / RFU, ARID1A / Fold change vs veh, ARID1A / RFU, ZNF146 / Fold change vs veh, ZNF146 / RFU, ZNF330 / Fold change vs veh, ZNF330 / RFU, GPN3 / Fold change vs veh, GPN3 / RFU, C9orf123 / Fold change vs veh, C9orf123 / RFU, N4BP2L2 / Fold change vs veh, N4BP2L2 / RFU, ARFIP1 / Fold change vs veh, ARFIP1 / RFU, FAM179B / Fold change vs veh, FAM179B / RFU, BCL10 / Fold change vs veh, BCL10 / RFU, UHRF1BP1L / Fold change vs veh, UHRF1BP1L / RFU, BET1 / Fold change vs veh, BET1 / RFU, CNOT2 / Fold change vs veh, CNOT2 / RFU, ZNF268 / Fold change vs veh, ZNF268 / Fold change vs veh, ZNF507 / RFU, DGCR2 / Fold change vs veh, DGCR2 / RFU, WDSUB1 / Fold change vs veh, WDSUB1 / Fold change vs veh, HSP90B1 /// MIR3652 / RFU, ADSS / Fold change vs veh, ADSS / RFU, GK / Fold change vs veh, GK / RFU, ZNF148 / Fold change vs veh, ZNF148 / RFU, TAF9 / Fold change vs veh, TAF9 / RFU, SLC1A5 / Fold change vs veh, SLC1A5 / RFU, SLMO2 / Fold change vs veh, SLMO2 / RFU, ABCC4 / Fold change vs veh, ABCC4 / RFU, LOC101060439 /// RAP1B / Fold change vs veh, LOC101060439 /// RAP1B / RFU, RFX7 / Fold change vs veh, RFX7 / RFU, GTPBP10 / Fold change vs veh, GTPBP10 / RFU, CNEP1R1 / Fold change vs veh, CNEP1R1 / RFU, BIVM-ERCC5 /// ERCC5 / Fold change vs veh, BIVM-ERCC5 /// ERCC5 / RFU, ILF3 / Fold change vs veh, ILF3 / RFU 11762660_at / Fold change /veh 11762660_at / RFU VCAN (11757783_s_at) / Fold change /veh VCAN (11757783_s_at) / RFU DDX43 (11728927_at) / Fold change /veh DDX43 (11728927_at) / RFU KRT8 (11758188_x_at) / Fold change /veh KRT8 (11758188_x_at) / RFU NKD1 (11759106_at) / Fold change /veh NKD1 (11759106_at) / RFU SRD5A1 (11742802_a_at) / Fold change /veh SRD5A1 (11742802_a_at) / RFU TPSAB1 /// TPSB2 (11721975_s_at) / Fold change /veh TPSAB1 /// TPSB2 (11721975_s_at) / RFU GSTM3 (11746129_a_at) / Fold change /veh GSTM3 (11746129_a_at) / RFU IL23R (11737362_x_at) / Fold change /veh IL23R (11737362_x_at) / RFU TMEM51 (11727254_a_at) / Fold change /veh TMEM51 (11727254_a_at) / RFU PIWIL2 (11732686_x_at) / Fold change /veh PIWIL2 (11732686_x_at) / RFU ORM1 (11744905_x_at) / Fold change /veh ORM1 (11744905_x_at) / RFU CCDC152 (11743942_at) / Fold change /veh CCDC152 (11743942_at) / RFU ECM1 (11717891_a_at) / Fold change /veh ECM1 (11717891_a_at) / RFU IL23R (11748794_a_at) / Fold change /veh IL23R (11748794_a_at) / RFU TNFAIP8L3 (11732012_x_at) / Fold change /veh TNFAIP8L3 (11732012_x_at) / RFU MBOAT4 (11741988_at) / Fold change /veh MBOAT4 (11741988_at) / RFU 11764193_at / Fold change /veh 11764193_at / RFU TMEM53 (11763286_at) / Fold change /veh TMEM53 (11763286_at) / RFU MAGEB2 (11727129_at) / Fold change /veh MAGEB2 (11727129_at) / RFU TMEM200A (11744735_a_at) / Fold change /veh TMEM200A (11744735_a_at) / RFU CCDC152 (11751479_a_at) / Fold change /veh CCDC152 (11751479_a_at) / RFU FAM211A (11726209_a_at) / Fold change /veh FAM211A (11726209_a_at) / RFU RGS16 (11746705_a_at) / Fold change /veh RGS16 (11746705_a_at) / RFU VCAN (11755009_s_at) / Fold change /veh VCAN (11755009_s_at) / RFU RHOB (11743442_s_at) / Fold change /veh RHOB (11743442_s_at) / RFU RGS16 (11720943_a_at) / Fold change /veh RGS16 (11720943_a_at) / RFU RGS16 (11720944_at) / Fold change /veh RGS16 (11720944_at) / RFU, VPS4B / Fold change vs veh, VPS4B / RFU, CREB1 / Fold change vs veh, CREB1 / RFU, DNAJC13 / Fold change vs veh, DNAJC13 / RFU, GNAQ / Fold change vs veh, GNAQ / RFU, CDK5R1 / Fold change vs veh, CDK5R1 / RFU, ZRANB3 / Fold change vs veh, ZRANB3 / RFU, CUL4A / Fold change vs veh, CUL4A / RFU, CCNY / Fold change vs veh, CCNY / RFU, UFL1 / Fold change vs veh, UFL1 / RFU, COG3 / Fold change vs veh, COG3 / RFU, DIAPH2 / Fold change vs veh, DIAPH2 / RFU, SKA2 / Fold change vs veh, SKA2 / RFU, AFF3 / Fold change vs veh, AFF3 / RFU, LMF1 / Fold change vs veh, LMF1 / RFU, IPO11 / Fold change vs veh, IPO11 / RFU, DFFB / Fold change vs veh, DFFB / RFU, FOXP1 / Fold change vs veh, FOXP1 / RFU, CARD8 / Fold change vs veh, CARD8 / RFU, STRN3 / Fold change vs veh, STRN3 / RFU, ADK / Fold change vs veh, ADK / RFU, RASSF2 / Fold change vs veh, RASSF2 / RFU, WIPF1 / Fold change vs veh, WIPF1 / RFU, LARP1B / Fold change vs veh, LARP1B / RFU, RASA1 / Fold change vs veh, RASA1 / RFU, RB1 / Fold change vs veh, RB1 / RFU, PPFIA1 / Fold change vs veh, PPFIA1 / RFU, MAT2A / Fold change vs veh, MAT2A / RFU, CCT5 / Fold change vs veh, CCT5 / RFU, WDR92 / Fold change vs veh, WDR92 / RFU, CUX1 / Fold change vs veh, CUX1 / RFU, TTC7A / Fold change vs veh, TTC7A / RFU, TMEM135 / Fold change vs veh, TMEM135 / RFU, DEPTOR / Fold change vs veh, DEPTOR / RFU, CPM / Fold change vs veh, CPM / RFU, DNAJB6 / Fold change vs veh, DNAJB6 / RFU, CACNA2D3 / Fold change vs veh, CACNA2D3 / RFU, DTX4 / Fold change vs veh, DTX4 / RFU, TFCP2 / Fold change vs veh, TFCP2 / RFU, GMCL1 /// GMCL1P1 / Fold change vs veh, GMCL1 /// GMCL1P1 / RFU, AEBP2 / Fold change vs veh, AEBP2 / RFU, SNHG1 /// SNORD22 /// SNORD25 /// SNORD26 /// SNORD27 /// SNORD28 /// SNORD29 /// SNORD31 / Fold change vs veh, SNHG1 /// SNORD22 /// SNORD25 /// SNORD26 /// SNORD27 /// SNORD28 /// SNORD29 /// SNORD31 / Fold change (Aza/veh), C12orf56 (ProbeSet 11735607_a_at) / Fold change (ACY-1035/veh), C12orf56 (ProbeSet 11735607_a_at) / Fold change (Aza/veh), FGFR1OP (ProbeSet 11751329_s_at) / Fold change (ACY-1035/veh), FGFR1OP (ProbeSet 11751329_s_at) / Fold change (Aza/veh), VPS36 (ProbeSet 11739960_a_at) / Fold change (ACY-1035/veh), VPS36 (ProbeSet 11739960_a_at) / RFU SYPL1 (11715823_x_at) / Fold change /veh SYPL1 (11715823_x_at) / RFU IGFBP7 (11715501_s_at) / Fold change /veh IGFBP7 (11715501_s_at) / RFU REEP3 (11722064_at) / Fold change /veh REEP3 (11722064_at) / RFU IGLL1 (11728026_x_at) / Fold change /veh IGLL1 (11728026_x_at): dose or concentration left out as unconfirmed
Details: MV-4-11 cells, 48 hours

SMILES: Nc1ccc(-c2cccs2)cc1NC(=O)c1ccc2c(c1)cc(C1CC1)n2CCN1CCOCC1 [ACY-1035]
- Fold change /veh GAP43 (11754022_s_at): 0.88
